Experimental data taken from the supplement of paper PMC10307832.

What was measured:
Assay in all cases: relative viability (nuclei count vs DMSO), 5 days (fraction); higher = more cells survive
[1] = tested on: EMC-BAC-2
In short: (§1)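 Medians of duplicate plates are given as relative viability. That measure is the nuclei count in treated wells divided by the count in vehicle wells. Counts were taken on 4× images of lung cancer cell lines in 1536-well plates, 5 days after pin-tool dosing the day after seeding with one drug alone or a fixed anchor-drug dose plus five library-drug doses (not always all listed) in √10 steps.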

[2] = tested on: PC-3 [JPC-3]
In short: as §1

[3] = tested on: HARA
In short: as §1

[4] = tested on: NCI-H3122
In short: as §1

[5] = tested on: NCI-H2228
In short: as §1

[6] = tested on: NCI-H1792
In short: as §1

[7] = tested on: A-427
In short: as §1

[8] = tested on: SK-MES-1
In short: as §1

[9] = tested on: ABC-1
In short: as §1

[10] = tested on: NCI-H322M
In short: as §1

[11] = tested on: LXF-289
In short: as §1

[12] = tested on: SW 1573
In short: as §1

[13] = tested on: HOP-62
In short: as §1

[14] = tested on: NCI-H727
In short: as §1

[15] = tested on: NCI-H1993
In short: as §1

[16] = tested on: NCI-H1944
In short: as §1

[17] = tested on: LK-2
In short: as §1

[18] = tested on: NCI-H2009
In short: as §1

[19] = tested on: NCI-H596
In short: as §1

[20] = tested on: NCI-H2170
In short: as §1

Cc1sc2c(c1C)C(c1ccc(Cl)cc1)=N[C@@H](CC(=O)OC(C)(C)C)c1nnc(C)n1-2 [JQ1] + CS(=O)(=O)CCNCc1ccc(-c2ccc3ncnc(Nc4ccc(OCc5cccc(F)c5)c(Cl)c4)c3c2)o1 [Lapatinib] (partner 2 µM)
relative viability ([1]; first compound 0.04 µM): 0.841 | relative viability ([1]; first compound 0.1265 µM): 0.905 | relative viability ([1]; first compound 0.4 µM): 0.949 | relative viability ([1]; first compound 1.265 µM): 0.551 | relative viability ([1]; first compound 4 µM): 0.495 | relative viability ([2]; first compound 0.04 µM): 0.488 | relative viability ([2]; first compound 0.1265 µM): 0.529 | relative viability ([2]; first compound 0.4 µM): 0.432 | relative viability ([2]; first compound 1.265 µM): 0.412 | relative viability ([2]; first compound 4 µM): 0.411 | relative viability ([3]; first compound 0.04 µM): 0.871 | relative viability ([3]; first compound 0.1265 µM): 0.559 | relative viability ([3]; first compound 0.4 µM): 0.642 | relative viability ([3]; first compound 1.265 µM): 0.317 | relative viability ([3]; first compound 4 µM): 0.165 | relative viability ([4]; first compound 0.04 µM): 0.996 | relative viability ([4]; first compound 0.1265 µM): 0.974 | relative viability ([4]; first compound 0.4 µM): 0.981 | relative viability ([4]; first compound 1.265 µM): 1.02 | relative viability ([4]; first compound 4 µM): 0.876 | relative viability ([5]; first compound 0.04 µM): 0.902 | relative viability ([5]; first compound 0.1265 µM): 0.876 | relative viability ([5]; first compound 0.4 µM): 0.751 | relative viability ([5]; first compound 1.265 µM): 0.374 | relative viability ([5]; first compound 4 µM): 0.327 | relative viability ([6]; first compound 0.04 µM): 0.947 | relative viability ([6]; first compound 0.4 µM): 0.916 | relative viability ([6]; first compound 1.265 µM): 0.896 | relative viability ([6]; first compound 4 µM): 0.688 | relative viability ([7]; first compound 0.04 µM): 0.925 | relative viability ([7]; first compound 0.1265 µM): 0.916 | relative viability ([7]; first compound 0.4 µM): 1.08 | relative viability ([7]; first compound 1.265 µM): 1.02 | relative viability ([7]; first compound 4 µM): 0.696 | relative viability ([8]; first compound 0.04 µM): 0.455 | relative viability ([8]; first compound 0.1265 µM): 0.436 | relative viability ([8]; first compound 0.4 µM): 0.361 | relative viability ([8]; first compound 1.265 µM): 0.292 | relative viability ([8]; first compound 4 µM): 0.274 | relative viability ([9]; first compound 0.04 µM): 1.11 | relative viability ([9]; first compound 0.1265 µM): 0.82 | relative viability ([9]; first compound 0.4 µM): 1.04 | relative viability ([9]; first compound 1.265 µM): 0.992 | relative viability ([9]; first compound 4 µM): 0.727 | relative viability ([10]; first compound 0.04 µM): 0.634 | relative viability ([10]; first compound 0.1265 µM): 0.658 | relative viability ([10]; first compound 0.4 µM): 0.572 | relative viability ([10]; first compound 1.265 µM): 0.506 | relative viability ([10]; first compound 4 µM): 0.467 | relative viability ([11]; first compound 0.04 µM): 0.915 | relative viability ([11]; first compound 0.1265 µM): 0.862 | relative viability ([11]; first compound 0.4 µM): 0.917 | relative viability ([11]; first compound 1.265 µM): 0.851 | relative viability ([11]; first compound 4 µM): 0.704 | relative viability ([12]; first compound 0.04 µM): 1.13 | relative viability ([12]; first compound 0.1265 µM): 0.886 | relative viability ([12]; first compound 0.4 µM): 0.881 | relative viability ([12]; first compound 1.265 µM): 0.61 | relative viability ([12]; first compound 4 µM): 0.512 | relative viability ([13]; first compound 0.04 µM): 1.07 | relative viability ([13]; first compound 0.1265 µM): 0.724 | relative viability ([13]; first compound 0.4 µM): 0.636 | relative viability ([13]; first compound 1.265 µM): 0.241 | relative viability ([13]; first compound 4 µM): 0.126 | relative viability ([14]; first compound 0.04 µM): 0.727 | relative viability ([14]; first compound 0.1265 µM): 0.695 | relative viability ([14]; first compound 0.4 µM): 0.506 | relative viability ([14]; first compound 1.265 µM): 0.361 | relative viability ([14]; first compound 4 µM): 0.469 | relative viability ([15]; first compound 0.04 µM): 0.825 | relative viability ([15]; first compound 0.1265 µM): 0.812 | relative viability ([15]; first compound 0.4 µM): 0.676 | relative viability ([15]; first compound 1.265 µM): 0.702 | relative viability ([15]; first compound 4 µM): 0.65 | relative viability ([16]; first compound 0.04 µM): 0.79 | relative viability ([16]; first compound 0.1265 µM): 0.543 | relative viability ([16]; first compound 0.4 µM): 0.614 | relative viability ([16]; first compound 1.265 µM): 0.584 | relative viability ([16]; first compound 4 µM): 0.454 | relative viability ([17]; first compound 0.04 µM): 0.886 | relative viability ([17]; first compound 0.1265 µM): 0.896 | relative viability ([17]; first compound 0.4 µM): 0.456 | relative viability ([17]; first compound 1.265 µM): 0.177 | relative viability ([17]; first compound 4 µM): 0.286 | relative viability ([18]; first compound 0.04 µM): 0.961 | relative viability ([18]; first compound 0.1265 µM): 0.412 | relative viability ([18]; first compound 0.4 µM): 0.336 | relative viability ([18]; first compound 1.265 µM): 0.285 | relative viability ([18]; first compound 4 µM): 0.251 | relative viability ([19]; first compound 0.04 µM): 1.07 | relative viability ([19]; first compound 0.1265 µM): 0.956 | relative viability ([19]; first compound 0.4 µM): 0.887 | relative viability ([19]; first compound 1.265 µM): 0.546 | relative viability ([19]; first compound 4 µM): 0.415 | relative viability ([20]; first compound 0.04 µM): 0.258 | relative viability ([20]; first compound 0.1265 µM): 0.252 | relative viability ([20]; first compound 0.4 µM): 0.262 | relative viability ([20]; first compound 1.265 µM): 0.229 | relative viability ([20]; first compound 4 µM): 0.254
